Laboratory results as given in patent publication US20240116857A1 (St. Louis University, priority 2022, published 2024).
Converted amounts (≈) assume the structure as drawn.

tested on: E. coli BW25113; experiment: MIC, 2-fold broth dilution, E. coli BW25113; format: cell-based, Escherichia coli; conditions: Escherichia coli; E. coli BW25113; asterisk in column 1-10; read-out: MIC, μM 1-10

Q: `C#CC[N+](C)(C)c1ccc(NC(=O)c2ccc(-c3ccc(C(=O)Nc4ccc([N+](C)(C)C)c(F)c4)cc3)cc2)cc1F` [Example 94, 4-(4′-((4-(dimethyl(prop-2-yn-1-yl)ammonio)-3-fluorophenyl)carbamoyl)-[1,1′-biphenyl]-4-carboxamido)-2-fluoro-N,N,N-trimethylbenzenaminium] was tested. Which MIC did it give?
A: 1 to 10 µM

Q: For `C#CCCCCOc1cc(NC(=O)c2ccc(-c3ccc(C(=O)Nc4ccc([N+](C)(C)C)c(F)c4)cc3)cc2)ccc1[N+](C)(C)C` [Example 96, 2-fluoro-4-(4′-((3-(hex-5-yn-1-yloxy)-4-(trimethylammonio)phenyl)carbamoyl)-[1,1′-biphenyl]-4-carboxamido)-N,N,N-trimethylbenzenaminium], which MIC is on record?
A: 1 to 10 µM

Q: For `COc1cc(NC(=O)c2ccc(-c3ccc(C(=O)Nc4ccc([N+](C)(C)C)c(F)c4)cc3)cc2)ccc1[N+](C)(C)C` [Example 98, 2-fluoro-4-(4′-((3-methoxy-4-(trimethylammonio)phenyl)carbamoyl)-[1,1′-biphenyl]-4-carboxamido)-N,N,N-trimethylbenzenaminium], which MIC is on record?
A: 1 to 10 µM

Q: How did the MIC turn out when `C#CCCOc1cc(NC(=O)c2ccc(-c3ccc(C(=O)Nc4ccc([N+](C)(C)C)c(F)c4)cc3)cc2)ccc1[N+](C)(C)C` [Example 103, 2-(but-3-yn-1-yloxy)-4-(4′-((3-fluoro-4-(trimethylammonio)phenyl)carbamoyl)-[1,1′-biphenyl]-4-carboxamido)-N,N,N-trimethylbenzenaminium] was run?
A: 1 to 10 µM

Q: How did the MIC turn out when `C#CCCCCCCCCOc1cc(NC(=O)c2ccc(-c3ccc(C(=O)Nc4ccc([N+](C)(C)C)c(F)c4)cc3)cc2)ccc1[N+](C)(C)C` [Example 116] was run?
A: 1 to 10 µM

Q: How did the MIC turn out when `CN(C)c1ccc(NC(=O)c2ccc(-c3ccc(C(=O)Nc4ccc(N5CCCCC5)cc4)cc3)cc2)cc1` [Example 127] was run?
A: 1 to 10 µM (≈ 0.519 to 5.19 µg/mL)

Q: For `COc1cc(NC(=O)c2ccc(-c3ccc(C(=O)Nc4ccc(N5CCCCC5)cc4)cc3)cc2)ccc1N(C)C` [Example 128], which MIC is on record?
A: 1 to 10 µM (≈ 0.549 to 5.49 µg/mL)

Q: How did the MIC turn out when `C[N+](C)(C)c1ccc(NC(=O)c2ccc(-c3ccc(C(=O)Nc4ccc([N+]5(C)CCCCC5)cc4)cc3)cc2)cc1F` [Example 129] was run?
A: 1 to 10 µM

same assay, conditions: Escherichia coli; E. coli BW25113; asterisk in column 10-50; read-out: MIC, μM 10-50

Q: Which MIC does the source give for `C#CCCC[N+](C)(C)c1ccc(NC(=O)c2ccc(-c3ccc(C(=O)Nc4ccc([N+](C)(C)C)c(F)c4)cc3)cc2)cc1F` [Example 118] here?
A: 10 to 50 µM

same assay, conditions: Escherichia coli; E. coli BW25113; asterisk in column >50; read-out: MIC, μM >50

Q: With `Cc1cc(C(=O)Nc2ccc(N(C)C)c(F)c2)ccc1-c1ccc(C(=O)Nc2ccc(N(C)C)c(F)c2)cc1` [Example 90, N^4,N^4′-bis(4-(dimethylamino)-3-fluorophenyl)-2-methyl-[1,1′-biphenyl]-4,4′-dicarboxamide] as the compound, how does the MIC read?
A: > 50 µM

Q: With `Cc1cc(C(=O)Nc2ccc([N+](C)(C)C)c(F)c2)ccc1-c1ccc(C(=O)Nc2ccc([N+](C)(C)C)c(F)c2)cc1` [Example 91, 4,4′-((2-methyl-[1,1′-biphenyl]-4,4′-dicarbonyl)bis(azanediyl))bis(2-fluoro-N,N,N-trimethylbenzenaminium)] as the compound, how does the MIC read?
A: > 50 µM

Q: How did the MIC turn out when `O=C(NCc1ccncc1)c1ccc(-c2ccc(C(=O)NCc3ccncc3)cc2)cc1` [Example 92, N^4,N^4′-bis(pyridin-4-ylmethyl)-[1,1′-biphenyl]-4,4′-dicarboxamide] was run?
A: > 50 µM

Q: For `C#CCN(C)c1ccc(NC(=O)c2ccc(-c3ccc(C(=O)Nc4ccc(N(C)C)c(F)c4)cc3)cc2)cc1F` [Example 93, N^4-(4-(dimethylamino)-3-fluorophenyl)-N^4′-(3-fluoro-4-(methyl(prop-2-yn-1-yl)amino)phenyl)-[1,1′-biphenyl]-4,4′-dicarboxamide], which MIC is on record?
A: > 50 µM

Q: How did the MIC turn out when `C#CCCCCOc1cc(NC(=O)c2ccc(-c3ccc(C(=O)Nc4ccc(N(C)C)c(F)c4)cc3)cc2)ccc1N(C)C` [Example 95, N^4-(4-(dimethylamino)-3-(hex-5-yn-1-yloxy)phenyl)-N^4′-(4-(dimethylamino)-3-fluorophenyl)-[1,1′-biphenyl]-4,4′-dicarboxamide] was run?
A: > 50 µM

Q: Which MIC does the source give for `COc1cc(NC(=O)c2ccc(-c3ccc(C(=O)Nc4ccc(N(C)C)c(F)c4)cc3)cc2)ccc1N(C)C` [Example 97, N^4-(4-(dimethylamino)-3-fluorophenyl)-N^4′-(4-(dimethylamino)-3-methoxyphenyl)-[1,1′-biphenyl]-4,4′-dicarboxamide] here?
A: > 50 µM

Q: For `C#CCCOc1cc(NC(=O)c2ccc(-c3ccc(C(=O)Nc4ccc(N(C)C)c(F)c4)cc3)cc2)ccc1N(C)C` [Example 99, N^4-(3-(but-3-yn-1-yloxy)-4-(dimethylamino)phenyl)-N^4′-(4-(dimethylamino)-3-fluorophenyl)-[1,1′-biphenyl]-4,4′-dicarboxamide], which MIC is on record?
A: > 50 µM

Q: With `C[n+]1ccc(CNC(=O)c2ccc(-c3ccc(C(=O)NCc4cc[n+](C)cc4)cc3)cc2)cc1` [Example 100, 4,4′-((([1,1′-biphenyl]-4,4′-dicarbonyl)bis(azanediyl))bis(methylene))bis(1-methylpyridin-1-ium)] as the compound, how does the MIC read?
A: > 50 µM

Q: `CN(C)c1ccc(CNC(=O)c2ccc(-c3ccc(C(=O)NCc4ccc(N(C)C)cc4)cc3)cc2)cc1` [Example 101, N^4,N^4′-bis(4-(dimethylamino)benzyl)-[1,1′-biphenyl]-4,4′-dicarboxamide] was tested. Which MIC did it give?
A: > 50 µM

Q: How did the MIC turn out when `C[N+](C)(C)c1ccc(CNC(=O)c2ccc(-c3ccc(C(=O)NCc4ccc([N+](C)(C)C)cc4)cc3)cc2)cc1` [Example 102, 4,4′-((([1,1′-biphenyl]-4,4′-dicarbonyl)bis(azanediyl))bis(methylene))bis(N,N,N-trimethylbenzenaminium)] was run?
A: > 50 µM

Q: `C#CCN(C)c1ccc(NC(=O)c2ccc(-c3ccc(C(=O)Nc4ccc([N+](C)(C)C)c(F)c4)cc3)cc2)cc1F` [Example 104] was tested. Which MIC did it give?
A: > 50 µM

Q: With `COC(=O)Cn1cc(CCC[N+](C)(C)c2ccc(NC(=O)c3ccc(-c4ccc(C(=O)Nc5ccc([N+](C)(C)C)c(F)c5)cc4)cc3)cc2F)nn1` [Example 106] as the compound, how does the MIC read?
A: > 50 µM

Q: For `COC(=O)Cn1cc(CCOc2cc(NC(=O)c3ccc(-c4ccc(C(=O)Nc5ccc([N+](C)(C)C)c(F)c5)cc4)cc3)ccc2[N+](C)(C)C)nn1` [Example 107], which MIC is on record?
A: > 50 µM

Q: Which MIC does the source give for `COC(=O)Cn1cc(C[N+](C)(C)c2ccc(NC(=O)c3ccc(-c4ccc(C(=O)Nc5ccc([N+](C)(C)C)c(F)c5)cc4)cc3)cc2F)nn1` [Example 108] here?
A: > 50 µM

Q: With `CN(C)c1ccc(NC(=O)c2ccc(-c3ccc(C(=O)Nc4ccc(N5CCCCC5)cc4)cc3)cc2)cc1F` [Example 111] as the compound, how does the MIC read?
A: > 50 µM

Q: With `CN(C)c1ccc(NC(=O)c2ccc(-c3ccc(C(=O)Nc4ccc(N(C)C)c(F)c4)cc3)cc2)cc1` [Example 112] as the compound, how does the MIC read?
A: > 50 µM

Q: How did the MIC turn out when `CN(C)c1ccc(NC(=O)c2ccc(-c3ccc(C(=O)Nc4ccc(N(C)C)c(F)c4)cc3C(F)(F)F)cc2)cc1F` [Example 114] was run?
A: > 50 µM

Q: With `CN(C)c1ccc(NC(=O)c2ccc(-c3ccc(C(=O)Nc4ccc(N(C)C)c(Cl)c4)cc3)cc2)cc1F` [Example 115] as the compound, how does the MIC read?
A: > 50 µM

Q: With `C#CCCCCCCCCOc1cc(NC(=O)c2ccc(-c3ccc(C(=O)Nc4ccc(N(C)C)c(F)c4)cc3)cc2)ccc1N(C)C` [Example 117] as the compound, how does the MIC read?
A: > 50 µM

Q: Which MIC does the source give for `C#CCCCC[N+](C)(C)c1ccc(NC(=O)c2ccc(-c3ccc(C(=O)Nc4ccc([N+](C)(C)C)c(F)c4)cc3)cc2)cc1F` [Example 121] here?
A: > 50 µM

Q: `C#CCCCOc1cc(NC(=O)c2ccc(-c3ccc(C(=O)Nc4ccc([N+](C)(C)C)c(F)c4)cc3)cc2)ccc1[N+](C)(C)C` [Example 122] was tested. Which MIC did it give?
A: > 50 µM

Q: `C#CCCCOc1cc(NC(=O)c2ccc(-c3ccc(C(=O)Nc4ccc(N(C)C)c(F)c4)cc3)cc2)ccc1N(C)C` [Example 123] was tested. Which MIC did it give?
A: > 50 µM

Q: `C#CCCCN(C)c1ccc(NC(=O)c2ccc(-c3ccc(C(=O)Nc4ccc(N(C)C)c(F)c4)cc3)cc2)cc1F` [Example 124] was tested. Which MIC did it give?
A: > 50 µM

Q: For `CN(C)c1ccc(NC(=O)c2ccc(-c3ccc(C(=O)Nc4ccc([N+](C)(C)C)c(F)c4)cc3)cc2)cc1F` [Example 125], which MIC is on record?
A: > 50 µM

Q: For `C#CCCCCN(C)c1ccc(NC(=O)c2ccc(-c3ccc(C(=O)Nc4ccc(N(C)C)c(F)c4)cc3)cc2)cc1F` [Example 126], which MIC is on record?
A: > 50 µM

Q: With `C[N+](C)(C)c1ccc(NC(=O)c2ccc(-c3ccc(C(=O)Nc4ccc([N+](C)(C)C)c(F)c4)cc3)cc2)cc1` [Example 130] as the compound, how does the MIC read?
A: > 50 µM

Q: `C[N+](C)(C)c1ccc(NC(=O)c2ccc(-c3ccc(C(=O)Nc4ccc([N+](C)(C)C)c(Cl)c4)cc3)cc2)cc1F` [Example 131] was tested. Which MIC did it give?
A: > 50 µM

Q: Which MIC does the source give for `C[N+](C)(C)c1ccc(NC(=O)c2ccc(-c3ccc(C(=O)Nc4ccc([N+](C)(C)CCCCc5cn(CCOCCOCCOCCNC(=O)CCCC[C@@H]6SC[C@@H]7NC(=O)N[C@@H]76)nn5)c(F)c4)cc3)cc2)cc1F` [Example 132] here?
A: > 50 µM

Q: Which MIC does the source give for `C[N+](C)(C)c1ccc(NC(=O)c2ccc(-c3ccc(C(=O)Nc4ccc([N+](C)(C)CCCc5cn(CCOCCOCCOCCNC(=O)CCCC[C@@H]6SC[C@@H]7NC(=O)N[C@@H]76)nn5)c(F)c4)cc3)cc2)cc1F` [Example 133] here?
A: > 50 µM

Q: For `C[N+](C)(C)c1ccc(NC(=O)c2ccc(-c3ccc(C(=O)Nc4ccc([N+](C)(C)Cc5cn(CCOCCOCCOCCNC(=O)CCCC[C@@H]6SC[C@@H]7NC(=O)N[C@@H]76)nn5)c(F)c4)cc3)cc2)cc1F` [Example 134], which MIC is on record?
A: > 50 µM

Q: With `C[N+](C)(C)c1ccc(NC(=O)c2ccc(-c3ccc(C(=O)Nc4ccc([N+](C)(C)C)c(OCCCCCCCCc5cn(CCOCCOCCONC(=O)CCCC[C@@H]6SC[C@@H]7NC(=O)N[C@@H]76)nn5)c4)cc3)cc2)cc1F` [Example 135] as the compound, how does the MIC read?
A: > 50 µM

Q: With `C[N+](C)(C)c1ccc(NC(=O)c2ccc(-c3ccc(C(=O)Nc4ccc([N+](C)(C)C)c(OCCCCc5cn(CCOCCOCCOCCNC(=O)CCCC[C@@H]6SC[C@@H]7NC(=O)N[C@@H]76)nn5)c4)cc3)cc2)cc1F` [Example 136] as the compound, how does the MIC read?
A: > 50 µM

Q: With `C[N+](C)(C)c1ccc(NC(=O)c2ccc(-c3ccc(C(=O)Nc4ccc([N+](C)(C)C)c(OCCCc5cn(CCOCCOCCOCCNC(=O)CCCC[C@@H]6SC[C@@H]7NC(=O)N[C@@H]76)nn5)c4)cc3)cc2)cc1F` [Example 137] as the compound, how does the MIC read?
A: > 50 µM

Q: For `C[N+](C)(C)c1ccc(NC(=O)c2ccc(-c3ccc(C(=O)Nc4ccc([N+](C)(C)C)c(OCCc5cn(CCOCCOCCOCCNC(=O)CCCC[C@@H]6SC[C@@H]7NC(=O)N[C@@H]76)nn5)c4)cc3)cc2)cc1F` [Example 138], which MIC is on record?
A: > 50 µM

Q: For `C#CCCN(C)c1ccc(NC(=O)c2ccc(-c3ccc(C(=O)Nc4ccc(N(C)C)c(F)c4)cc3)cc2)cc1F` [Example 139], which MIC is on record?
A: > 50 µM
